In PMC11963559, “Identification of novel thiazole derivatives as flaviviral protease inhibitors effective against Dengue (DENV2) and Japanese encephalitis viruses” (Antimicrobial Agents and Chemotherapy, 2025):

Legend:
[1] = system: JEV; experiment: Time course of JEV genomic RNA accumulation in BHK-21 cells (qRT-PCR); type: cell-based; conditions: JEV MOI 0.1, BHK-21, 10 µM; for effect on viral genomic RNA abundance at early time points: 1 and 9 hpi; for effect on viral genomic RNA abundance at later time point: 18 hpi
Excerpt: This is because the initial translation of the viral RNA genome leads to the production of a viral polyprotein, which upon processing by the NS2B–NS3 protease, leads to the generation of viral RdRp (NS5) and other NS proteins necessary for RNA synthesis ([15]). Thus, inhibition of the NS2B–NS3 protease by the two potential compounds should affect viral genomic RNA accumulation within infected cells only at later time points post-infection ([46]). To validate this hypothesis, we assessed the effect of the compounds upon dynamic accumulation of viral RNA at different times of post-infection. Cells were infected with the virus in the absence or presence of 3aq or 3au (10 µM) and harvested at different time points post-infection, and viral genomic RNA copies were estimated using qRT-PCR. […] As expected, the abundance of viral genomic RNA remained low at the early time points of infection (1 and 9 hpi) and subsequently peaked at 18 hpi (Fig. 9B). […] This is an indirect effect of NS2B–NS3 protease inhibition, which in turn blocks polyprotein processing and assembly of the viral RNA synthesis machinery.
Fig 9 Detailed molecular mechanism of the inhibitory action of the compounds. (A and B) BHK-21 cells were infected with JEV virus (MOI = 0.1) for 1, 9, and 18 h with or without 10 µM of compounds. Total RNA extracted at indicated times was evaluated by qRT-PCR. The data are expressed as fold changes of the viral RNA levels normalized to GAPDH control relative to the corresponding DMSO treated samples at each time point. (B) Same experiment as in (A) but expressed as relative to the initial inoculation amount (at 1 hpi). BHK-21 cells were infected with JEV (MOI: 0.1) and treated with 3au (C) and 3aq (D) pre + during + post (−3), during + post (0), and post (3, 6, 9) infection. Viral RNA load were assessed at 24 hpi using qRT-PCR. The data are expressed as fold changes of the viral RNA levels normalized to GAPDH control relative to the corresponding DMSO-treated sample. Each experiment is performed in biological triplicate and repeated thrice. Statistical significance was analyzed by two-tailed equal variance Student’s t-test: *P < 0.05, **P < 0.01, ***P < 0.001, and ****P < 0.0001.
To quantify the viral RNA copy number, quantitative RT-PCR (qRT-PCR) was performed in duplicate using iTaq Universal SYBR Green Supermix (Bio-Rad). The cDNAs used for qPCR analysis were prepared using Power SYBR Green PCR Master Mix (Bio-Rad, #172–5125) in a QuantStudio5 Applied Biosystems real-time PCR system. […] Delta Ct for both control and compound-treated samples was determined and subsequently analyzed by determining the delta Ct to determine the mRNA expression of target genes in control vs treated samples.

[2] = molecular target: T1, DENV2 NS2B–NS3 protease (Dengue virus type 2, UniProt P14340); experiment: NS2B–NS3 protease steady-state kinetics and mode of inhibition; type: biochemical; conditions: for mode of inhibition: both Km and Vmax reduced, Lineweaver–Burk plot; for Vmax: increasing substrate concentrations
T1 construct: Activity of recombinant dengue 2 virus NS3 protease in the presence of a truncated NS2B co-factor; The N-terminal domain of NS3 contains a highly conserved protease-active core; made in house; host or cells: Escherichia coli BL21(DE3)
T1 sequence (P14340 1476-1653): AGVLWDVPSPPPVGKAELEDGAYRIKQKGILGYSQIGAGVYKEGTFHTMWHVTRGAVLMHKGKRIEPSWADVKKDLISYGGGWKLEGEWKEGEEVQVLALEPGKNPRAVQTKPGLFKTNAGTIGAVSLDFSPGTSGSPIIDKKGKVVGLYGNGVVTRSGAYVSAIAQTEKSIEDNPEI
T1 sequence (P14340 1398-1437): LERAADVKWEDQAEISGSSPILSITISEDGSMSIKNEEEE
Method: As 3au and 3aq compounds emerged as the two most promising candidates, we characterized their NS2B–NS3 inhibitory activity in greater detail using the previously mentioned DENV NS2B–NS3 protease assay (Fig. 3D) ([39], [41]). Experiments were performed to determine the kinetic parameters, inhibition constants, and inhibition mechanisms of these compounds. Enzymatic activity and corresponding reaction velocity were measured with various substrate concentrations either in presence of the vehicle control or two different concentrations of compounds. Several inhibitory mechanisms, including competitive, uncompetitive, and mixed/non-competitive mechanisms, were explored for each compound. […] The double reciprocal plot (Lineweaver–Burk plot) ( Fig. 5C and D) also validates the mode of enzymatic inhibition against DENV NS2B–NS3 protease.
The selected compounds were analyzed using in vitro protease assays performed in black 96-well plates. Standard reaction mixtures (60 µL) containing 50 mM Tris·HCl (pH 8.5), 1 mM CHAPS, 20% glycerol, 10 nM DENV2 NS2B–NS3 protease, 10 µM inhibitor (dissolved in DMSO) or DMSO, and 10.0 µM tetra-peptide substrate trifluoroacetate-Nle-Lys-Arg-Arg-AMC (ALFA Chemicals) were added to the reaction mixture and incubated for 1 h at room temperature. All assays were performed in triplicate. The release of free AMC was measured using a Varioskan LUX multimode microplate reader (Thermo Fisher Scientific) at excitation and emission wavelengths of 380 and 460 nm, respectively. Control fluorescence values obtained in the absence of inhibitors were considered 100%, and those obtained in the presence of inhibitors were calculated as the percentage of inhibition of the control using Microsoft Excel and plotted using Origin Pro 2023b. The background AMC in the absence of protease was subtracted before data analysis. Further, protease assay was done using different concentration of the compounds (1, 10, and 100 µM) to evaluate the IC50 for the in vitro assay. IC50 curves were fitted and determined by fitting the nonlinear equation in Origin2023b software. A similar approach was used to analyze the enzymatic kinetics of protease inhibition. The reaction progress was monitored by the release of free aminomethylcoumarin (AMC), as previously described. The substrate was incubated with or without the inhibitor in the aforementioned reaction buffer in the presence of varying concentrations of the substrate. The reactions were initiated by the addition of the NS2B–NS3 protease. Protease activity was monitored for 1 h based on the initial rate of increase in fluorescence intensity at 460 nm, with an excitation wavelength of 380 nm. The results were analyzed using Origin Pro 2023b and the Michaelis–Menten equation to obtain the apparent Michaelis–Menten constants and maximal velocities. All assays were performed in triplicate. For each tested compound, […] different concentrations of the inhibitor (0, 10, and 25 µM) were used at various concentrations (0–250 μM) of the substrate. The mechanism of inhibition was determined by observing the deviations in the apparent Km and Vmax values.

Structure (SMILES) | effect on viral genomic RNA abundance at early time points [1] | effect on viral genomic RNA abundance at later time point [1] | mode of inhibition [2] | Vmax ([2]; inhibitor 10 μM) | Vmax ([2]; inhibitor 25 μM)
COc1ccc(-c2csc(N/N=C(\C)c3ccc(O)cc3)n2)cc1 [3aq] | no effect | drastic effect | uncompetitive | 52.1 ± 3.3 | 18.4 ± 0.9
COc1ccc(-c2csc(N/N=C(\C)c3cc(O)cc(O)c3)n2)cc1 [3au] | no effect | drastic effect | uncompetitive | 38.9 ± 1.9 | 21.4 ± 0.7
